Bounds are passed on as bounds.

The test system of data set [1] is mouse leukemia L1210 cells. As to the kind of experiment: Growth inhibition test on cultured mouse leukemia L1210 cells. Format: cell-based. As to conditions: RPMI 1640 with 10% fetal calf serum. As for the experimental part: Mouse leukemia L1210 cells were cultured in a RPMI 1640 medium containing 10% of fetal calf serum.
The subject of data set [2] is cis-Platin resistant mouse leukemia L1210 cells. As to the kind of experiment: Growth inhibition test on cis-Platin resistant L1210 tumor cells. Format: cell-based. Conditions: ratio of IC50 on cis-Platin resistant to non-resistant L1210 cells. The source says:
(§1) 1×10^5 mouse leukemia L1210 cells or 1×10^5 mouse leukemia P388 cells were inoculated into the abdominal cavities of CDF1 female mouse. […] After 5 days, their tumor cells were inoculated to the abdominal cavities of other CDF1 female mouse, and the same treatment was applied.

Data set [3] deals with cis-Platin resistant mouse leukemia P388 cells. The data set is described as follows: Growth inhibition test on cis-Platin resistant P388 tumor cells. Conditions: ratio of IC50 on cis-Platin resistant to non-resistant P388 cells. Format: cell-based.
Text: as §1

Another data set relates to mouse leukemia L1210. As to the kind of experiment: Antitumor activity test on mouse leukemia L1210 in vivo. Conditions: for max (T/C): L1210, average survival time treated/control ×100, i.p. once a day for 5 days; for Opt. dose: L1210, dose giving max (T/C); for Opt. dose / LD50: i.p. once a day for 5 days; for LD50: L1210-bearing CDF1 mice. As for the experimental part: Mice of compound-non-treated group (control group) were administered with physiological saline solution in the same manner. The average survival times of the compound-treated group and the control group (abbreviated as T and C, respectively) were measured and T/C percentage (T/C×100) was calculated from the following equation. [formula]
In Table 4, max (T/C) means the maximum value of T/C and optimum dose (opt. dose) means an administration amount giving the max namely, an optimum administration amount.

The test system of data set [4] is mouse leukemia P388 cells. As to the kind of experiment: Antitumor activity test in vivo, mouse leukemia P388. As to conditions: for Opt. dose: P388, i.p. once a day for 5 days; for Max (T/C): P388, median survival time, i.p. once a day for 5 days. Here is the method: (§2) 1×10^6 mouse leukemia P388 cells were inoculated into the abdominal cavities of 6-week-old female CDF1 mice, and from the next day a compound No. 15 was administered to them intraperitoneally once a day for 5 consecutive days. Separately, 1×10^6 mouse lung cancer Lewis lung carcinoma (LL) cells were inoculated into the abdominal cavities of male BDFl mice, and from the next day a compound No. 15 was administered to them intraperitoneally once a day for 5 consecutive days. Separately, 1×10^6 mouse fibrosarcoma M5076 cells were inoculated into the body sides of female C57BL/6 mice subcutaneously, and from the next day a compound No. 15 was administered to them intraperitoneally. Separately, 1×10^6 mouse colon cancer (colon 26) cells were inoculated into the abdominal cavities of female CDF1 mice, and from the next day a compound No. 15 was administered to them intraperitoneally. To respective control groups (compound-non-treated groups), physiological saline solution was administered.
(§3) From the survival times of the compound-treated group and the control group, respective median values (median survival times) were calculated. Using these values, T/C percentage was calculated from the following equation. [formula]

For data set [5], the system named is mouse lung cancer Lewis lung carcinoma (LL) cells. As to the kind of experiment: Antitumor activity test in vivo, Lewis lung carcinoma (LL). As to conditions: i.p. once a day for 5 days; for Max (T/C): median survival time. As for the experimental part:
as §2, §3

Data set [6] concerns mouse fibrosarcoma M5076 cells. As to the kind of experiment: Antitumor activity test in vivo, fibrosarcoma M5076. Conditions: M5076 inoculated s.c., i.p. administration. As for the experimental part:
as §2, §3

The subject of data set [7] is mouse colon cancer (colon 26) cells. The data set is described as follows: Antitumor activity test in vivo, colon 26. As for the experimental part:
as §2, §3

A short description of a further data set: Test for renal toxicity. As to conditions: mouse, in vivo. As for the experimental part:
A compound was administered one time to 6-week-old male CDFl mice intraperitoneally. After 4 days, their blood was collected for measurement of blood urea nitrogen concentration (BUN value).
In Table 6, body weight ratio is a ratio of body weight after 4 days from administration to body weight of administration day.

In a further data set the test system is various tumor cells. The data set is described as follows: Antitumor activity on various tumors (general statement). Conditions: in words. Format: in vivo, mouse. As for the experimental part:
as §2, §3

For data set [8] the following is noted: rate, in words; prior art; cited from earlier work.

`CC1CC[NH2+][Pt-2]2([NH2+]C1)[O]C(=O)C1(CCC1)C(=O)[O]2` (racemic) [Compound No. 15, cis-Cyclobutane-1,1-dicarboxylato-2-methyl-1,4-butanediamine platinum] displayed a Solubility in water above 8 mg/mL. For the same compound, in data set [1], the IC50 was 1.20 µg/mL. For the same compound, in data set [2], the “IC50 R/IC50, Tumor cell L1210” value turned out to be 3.19. Also, in data set [3], the “IC50 R/IC50, Tumor cell P388” value turned out to be 3.26. Besides, in the data set on mouse leukemia L1210, the “max (T/C)” value was determined as 182%, the Opt. dose is recorded as 32 mg/kg and the LD50 is 80.0 mg/kg. For the same compound, in data set [4], the Opt. dose stood at 32 mg/kg and the “Max (T/C)” value amounted to 260%. For the same compound, in data set [5], the Opt. dose is recorded as 32 mg/kg and the “Max (T/C)” value was 222%. Moreover, the Opt. dose in data set [6] is listed as 16 mg/kg. For the same compound, the “Max (T/C)” value in data set [6] (median survival time) is 152%. Further, the Opt. dose in data set [7] (Colon 26, i.p. administration) is 32 mg/kg. For the same compound, in data set [7] (Colon 26, median survival time, i.p. administration), the “Max (T/C)” value was determined as 198%.
`C[C@@H](CN)CCN.O=C([O-])C1(C(=O)[O-])CCC1.[Pt+2]` (stereo in doubt) [15R, cis-cyclobutane-1,1-dicarboxylato-R-2-methyl-1,4-butanediamine platinum] came in with a Solubility in water above 15 mg/mL. The same compound registered an IC50 in data set [1] of 0.78 µg/mL. Further, in the data set with mouse leukemia L1210, the “max (T/C)” value worked out at 189%, the Opt. dose is recorded as 32 mg/kg and the LD50 came to 33.6 mg/kg. Also, in [4], the Opt. dose was found to be 20 mg/kg and the “Max (T/C)” value came to 253%. Further, in data set [5], the Opt. dose is recorded as 30 mg/kg and the “Max (T/C)” value stood at 166%. Besides, in the data set “Test for renal toxicity”, the renal toxicity entry is listed as “very low renal toxicity”. Further, in the data set on various tumor cells, the antitumor effect entry is “excellent antitumor activities on various tumor cells”.
As to `O=C1[O][Pt-2]2([NH2+]CCCC[NH2+]2)[O]C(=O)C12CCOCC2` [Compound No. 3, cis-4-Oxacyclohexane-1,1-dicarboxylato-1,4-butanediamine platinum], the Solubility in water was above 10 mg/mL. Further, in [1], the IC50 came out at 0.65 µg/mL. In the data set with mouse leukemia L1210, the “max (T/C)” value came out at 132%, the Opt. dose is recorded as 8 mg/kg and the LD50 is on record as 8.4 mg/kg.
Consider `CCC1CCC[NH2+][Pt-2]([Cl])([Cl])[NH2+]1` (racemic) [Compound No. 10, cis-Dichloro-1-ethyl-1,4-butanediamine platinum], for which the “Solubility in physiological saline solution” value is on record as above 2 mg/ml. Moreover, the IC50 in data set [1] amounted to 0.35 µg/mL. Further, in the data set on mouse leukemia L1210, the “max (T/C)” value was determined as 210%, the Opt. dose amounted to 4 mg/kg and the LD50 worked out at 6.0 mg/kg.
In the case of `N.N.[Cl][Pt][Cl]` [cis-Platin, cis-dichlorodiammineplatinum, reference compound], the Opt. dose in the data set with mouse leukemia L1210 is 4 mg/kg. In data set [8], the dissolution in water result is listed as “dissolving in water slowly”.
In turn, `CC1CC[NH2+][Pt-2]2([NH2+]C1)[O]C(=O)C1(CCOCC1)C(=O)[O]2` (racemic) [Compound No. 16, cis-4-Oxacyclohexane-1,1-dicarboxylato-2-methyl-1,4-butanediamine platinum] returned a Solubility in water above 15 mg/mL. In data set [1], this compound yielded an IC50 of 0.43 µg/mL. Also, in the data set on mouse leukemia L1210, the “max (T/C)” value is 167%, the Opt. dose is 8 mg/kg and the LD50 is given as 12.0 mg/kg.
In turn, `C[C@H]1CC[NH2+][Pt-2]2([NH2+]C1)[O]C(=O)C1(CCC1)C(=O)[O]2` [15S, cis-cyclobutane-1,1-dicarboxylato-S-2-methyl-1,4-butanediamine platinum] displayed a Solubility in water above 15 mg/mL. This compound had an IC50 in data set [1] of 1.08 µg/mL. In the data set with mouse leukemia L1210, the “max (T/C)” value was 206%, the Opt. dose is recorded as 32 mg/kg and the LD50 is recorded as 48.0 mg/kg. Also, in data set [4], the Opt. dose is on record as 40 mg/kg and the “Max (T/C)” value is 253%. Further, in [5], the Opt. dose is listed as 50 mg/kg and the “Max (T/C)” value stood at 164%. For the same compound, in the data set “Test for renal toxicity”, the renal toxicity entry is on record as “very low renal toxicity”. In addition, the antitumor effect entry in the data set with various tumor cells is “excellent antitumor activities on various tumor cells”.
For the compound `[Cl][Pt-2]1([Cl])[NH2+]CCCC[NH2+]1` [Compound No. 1, cis-Dichloro-1,4-butanediamine platinum], the “Solubility in physiological saline solution” value is above 2 mg/ml. In [1], the IC50 came to 0.33 µg/mL. Moreover, in the data set on mouse leukemia L1210, the “max (T/C)” value came out at 203%, the Opt. dose worked out at 2 mg/kg and the LD50 was found to be 4.8 mg/kg.

The term IC50 denotes the point on the concentration scale where inhibition reaches its midpoint. A lower IC50 goes with greater potency in that assay. Broadly, the LD50 is the dose expected to kill half of the subjects tested.

The values above are taken from patent US4921984A, “Novel platinum complexes” (Nippon Kayaku Kabushiki Kaisha, priority 1985, dated 1990).
